Experimental data from PubChem BioAssay (NCI).
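Grown in 96-well plates, cells were treated for 48 hours with each compound at five concentrations. Insufficient inhibition: endpoint recorded as highest concentration tested. TGI is the concentration that stops growth completely.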

How the values were obtained:
Assay in all cases: growth of human tumour cells (NCI), 48 h
[1] = test system: MCF7 breast
[2] = test system: SN12C renal
[3] = test system: SK-OV-3 ovarian
[4] = test system: RXF 393 renal
[5] = test system: U251 CNS
[6] = test system: MDA-N
[7] = test system: SK-MEL-28 melanoma
[8] = test system: HCT-15 colon
[9] = test system: SF-268 CNS
[10] = test system: OVCAR-5 ovarian
[11] = test system: ACHN renal
[12] = test system: BT-549 breast
[13] = test system: NCI-H23 lung
[14] = test system: SNB-19 CNS
[15] = test system: NCI/ADR-RES ovarian
[16] = test system: EKVX NSCLC
[17] = test system: A549 NSCLC
[18] = test system: HCC-2998 colon
[19] = test system: T-47D breast
[20] = test system: OVCAR-8 ovarian
[21] = test system: UACC-62 melanoma
[22] = test system: NCI-H522 lung
[23] = test system: LOX IMVI melanoma
[24] = test system: MDA-MB-231 breast
[25] = test system: SF-539 CNS
[26] = test system: IGROV1 ovarian
[27] = test system: NCI-H226 lung
[28] = test system: HOP-92 NSCLC
[29] = test system: K-562 leukemia
[30] = test system: HCT-116 colon
[31] = test system: CAKI-1 renal
[32] = test system: MOLT-4 leukemia
[33] = test system: SW-620 colon
[34] = test system: DU-145 prostate
[35] = test system: SR leukemia
[36] = test system: OVCAR-4 ovarian
[37] = test system: RPMI-8226 leukemia
[38] = test system: HL-60(TB) leukemia
[39] = test system: TK-10 renal
[40] = test system: PC-3 prostate
[41] = test system: SK-MEL-5 melanoma
[42] = test system: UACC-257 melanoma
[43] = test system: HOP-62 NSCLC
[44] = test system: MALME-3M melanoma
[45] = test system: NCI-H460 lung
[46] = test system: CCRF-CEM leukemia
[47] = test system: COLO 205 colon
[48] = test system: HS 578T breast
[49] = test system: MDA-MB-435
[50] = test system: A498 renal
[51] = test system: 786-0 renal
[52] = test system: SK-MEL-2 melanoma
[53] = test system: M14 melanoma
[54] = test system: OVCAR-3 ovarian
[55] = test system: KM12 colon
[56] = test system: SF-295 CNS
[57] = test system: SNB-75 CNS
[58] = test system: UO-31 renal
[59] = test system: HT29 colon

Q: For `O=C1c2ccc3cc(CCl)cc(O)c3c2C(=O)c2cccc(O)c21`, which TGI [1] is on record?
A: The TGI was 2.72 µM.

Q: What about the TGI [2] of the same compound?
A: The TGI was 7.26 µM.

Q: What about the TGI [3] of the same compound?
A: Its TGI is greater than 10 µM.

Q: What about the TGI [4] of the same compound?
A: The TGI was 9.83 µM.

Q: And the TGI [5]?
A: Its TGI is greater than 10 µM.

Q: What about the TGI [6] of the same compound?
A: Its TGI is 0.314 µM.

Q: What about the TGI [7] of the same compound?
A: Its TGI is 8.27 µM.

Q: And the TGI [8]?
A: Its TGI is greater than 10 µM.

Q: And the TGI [9]?
A: The TGI was 9.18 µM.

Q: And the TGI [10]?
A: Its TGI is greater than 10 µM.

Q: And the TGI [11]?
A: The TGI was 7.4 µM.

Q: And the TGI [12]?
A: Its TGI is greater than 10 µM.

Q: What about the TGI [13] of the same compound?
A: The TGI was greater than 10 µM.

Q: What about the TGI [14] of the same compound?
A: The TGI was greater than 10 µM.

Q: What about the TGI [15] of the same compound?
A: Its TGI is 5.67 µM.

Q: What about the TGI [16] of the same compound?
A: Its TGI is greater than 10 µM.

Q: And the TGI [17]?
A: The TGI was greater than 10 µM.

Q: What about the TGI [18] of the same compound?
A: Its TGI is greater than 10 µM.

Q: And the TGI [19]?
A: Its TGI is greater than 10 µM.

Q: What about the TGI [20] of the same compound?
A: The TGI was 5.03 µM.

Q: And the TGI [21]?
A: The TGI was 3.85 µM.

Q: And the TGI [22]?
A: Its TGI is greater than 10 µM.

Q: And the TGI [23]?
A: Its TGI is greater than 10 µM.

Q: And the TGI [24]?
A: Its TGI is 3.16 µM.

Q: What about the TGI [25] of the same compound?
A: The TGI was 6.42 µM.

Q: And the TGI [26]?
A: Its TGI is greater than 10 µM.

Q: What about the TGI [27] of the same compound?
A: Its TGI is greater than 10 µM.

Q: What about the TGI [28] of the same compound?
A: Its TGI is greater than 10 µM.

Q: And the TGI [29]?
A: Its TGI is greater than 10 µM.

Q: And the TGI [30]?
A: The TGI was 4.18 µM.

Q: What about the TGI [31] of the same compound?
A: The TGI was greater than 10 µM.

Q: And the TGI [32]?
A: The TGI was 6.75 µM.

Q: What about the TGI [33] of the same compound?
A: The TGI was 1 µM.

Q: And the TGI [34]?
A: Its TGI is greater than 10 µM.

Q: What about the TGI [35] of the same compound?
A: Its TGI is greater than 10 µM.

Q: And the TGI [36]?
A: Its TGI is greater than 10 µM.

Q: And the TGI [37]?
A: Its TGI is greater than 10 µM.

Q: And the TGI [38]?
A: Its TGI is 1.61 µM.

Q: What about the TGI [39] of the same compound?
A: The TGI was greater than 10 µM.

Q: What about the TGI [40] of the same compound?
A: The TGI was greater than 10 µM.

Q: And the TGI [41]?
A: The TGI was 1.98 µM.

Q: What about the TGI [42] of the same compound?
A: The TGI was 3.04 µM.

Q: What about the TGI [43] of the same compound?
A: Its TGI is greater than 10 µM.

Q: What about the TGI [44] of the same compound?
A: Its TGI is 0.0669 µM.

Q: What about the TGI [45] of the same compound?
A: Its TGI is greater than 10 µM.

Q: What about the TGI [46] of the same compound?
A: The TGI was 5.16 µM.

Q: And the TGI [47]?
A: The TGI was 4.11 µM.

Q: What about the TGI [48] of the same compound?
A: The TGI was greater than 10 µM.

Q: What about the TGI [49] of the same compound?
A: Its TGI is 0.324 µM.

Q: And the TGI [50]?
A: Its TGI is greater than 10 µM.

Q: And the TGI [51]?
A: The TGI was greater than 10 µM.

Q: And the TGI [52]?
A: The TGI was greater than 10 µM.

Q: And the TGI [53]?
A: Its TGI is 2.45 µM.

Q: And the TGI [54]?
A: Its TGI is 0.407 µM.

Q: What about the TGI [55] of the same compound?
A: Its TGI is greater than 10 µM.

Q: What about the TGI [56] of the same compound?
A: Its TGI is greater than 10 µM.

Q: What does the source list for `CCCCCCCC/C=C\CCCCCCC/C=C1/C[C@](/C=C/C(=O)OC)(CO)OC1=O`?
A: TGI [1]: 20.8 µM; TGI [2]: 14.8 µM; TGI [3]: 24.3 µM; TGI [4]: 28.5 µM; TGI [5]: 21.2 µM; TGI [6]: 3.19 µM; TGI [7]: 10.2 µM; TGI [8]: 20.5 µM; TGI [9]: 19.7 µM; TGI [10]: 20.3 µM; TGI [11]: 16.7 µM; TGI [12]: 17.8 µM; TGI [13]: 24.9 µM; TGI [14]: 20.3 µM; TGI [15]: 24 µM; TGI [16]: 23 µM; TGI [17]: 17.3 µM; TGI [18]: 10.1 µM; TGI [19]: 19.8 µM; TGI [20]: 19.2 µM; TGI [21]: 22.4 µM; TGI [22]: 17.6 µM; TGI [23]: 12.8 µM; TGI [24]: 17.7 µM; TGI [25]: 2.84 µM; TGI [26]: 23.7 µM; TGI [27]: 15.8 µM; TGI [28]: 20.3 µM; TGI [29]: > 32.5 µM; TGI [30]: 15.5 µM; TGI [31]: 12.5 µM; TGI [32]: > 21.5 µM; TGI [33]: 11.4 µM; TGI [34]: 23.4 µM; TGI [35]: > 31.7 µM; TGI [36]: 16.9 µM; TGI [57]: 20.4 µM; TGI [38]: 10.3 µM; TGI [39]: 15.3 µM; TGI [40]: 14.5 µM; TGI [41]: 18 µM; TGI [42]: 29.6 µM; TGI [43]: 19 µM; TGI [44]: 8.74 µM; TGI [45]: 19.9 µM; TGI [58]: 15 µM; TGI [59]: 20.9 µM; TGI [47]: 5.04 µM; TGI [48]: 9.29 µM; TGI [49]: 7.41 µM; TGI [50]: 21.2 µM; TGI [51]: 10.3 µM; TGI [52]: 27.6 µM; TGI [53]: 11.6 µM; TGI [54]: 24 µM; TGI [55]: 23.9 µM; TGI [56]: 17.1 µM
